In patent US20120040976A1, “SMALL MOLECULE IMMUNOMODULATORS FOR ALZHEIMER'S DISEASE” (HUMAN BIOMOLECULAR RESEARCH INSTITUTE, priority 2008, published 2012):

What was measured:
TLR 7 = TLR 7 transcription ratio, AD patient / control PBMCs (qPCR); assay type: cell-based, human; settings: Aβ stimulation
Protocol: (§1) qPCR reactions of cultured monocyte cDNAs. One μL total cellular cDNA per reaction is used in triplicate reactions for each test gene, and for each culture treatment. SYBR-Green reactions were run on a Continuous Fluorescence real-time thermocycler and analyzed. Cycle threshold (Ct) values are recorded for each replicate reaction, and are then averaged and normalized against mean Ct values from one or more control genes. Fold-expression differences relative to untreated cells are determined using the 2^−ΔΔCt method as previously described. Data from the curcumin concentration range are plotted in order to determine EC50 values (concentrations producing one-half maximal stimulant activity), which are used for comparisons of potency between different compounds. Data are also evaluated for each gene with regard to sensitivity, maximally effective concentration of curcuminoid, response to Aβ, and overall magnitude of fold-expression changes.
(§2) MGAT3 and/or TLR transcription were tested by qPCR in human monocyte cells treated with curcuminoids and compared the results to those treated with vehicle (Table 7). As discussed above, activation or up-regulation of macrophage MGAT3 or TLR's results in many functional outcomes, including the enhancement of […] and removal of Aβ, increased apoptosis, secretion of inflammatory cytokines, and other anti-AD antimicrobial activities. […]

TLR 1 = TLR 1 transcription ratio, AD patient / control PBMCs (qPCR); assay type: cell-based, human; settings: Aβ stimulation
Protocol: as §1, §2

TLR4 = TLR4 gene expression by qPCR in U-937 human monocytic cells treated with curcumins plus Aβ; assay type: cell-based; settings: human monocytic cells (U-937), curcumin plus Aβ
Protocol: (§3) Cell culture conditions for monocytic cell lines. Human and mouse monocyte cell lines are grown in RPMI-1640 medium with 10% fetal bovine serum (FBS), plus glutamine and pen/strep. For treatment with compounds (curcuminoids+/−Aβ), replicate sets of 0.5-1.0 mL cultures containing 1-2×10^6 cells are set up in the wells of 48-well tissue culture plates. Both replicate sets have at least one control well receiving no added curcuminoid to provide baseline expression controls for untreated, and Aβ-only treated cells. Remaining wells receive curcuminoid in a range of 10-fold serial dilutions in DMSO, typically from […] Cultures are incubated for 20-24 hours (“overnight”) at 37° C. in atmosphere with 5% CO2. After one overnight, to one of replicate sets of cultures is added Aβ (1-42) peptide to a final concentration of 5 μg/mL.
(§4) RNA isolation and cDNA synthesis. After the first overnight incubation in the presence of curcuminoid, cells from one replicate set of wells are collected by centifugation. RNAs are extracted from pelleted cells using miniprep column kits following manufacturer's protocol for animal cells. […] of total cellular RNA from each well is quantitated using a Nanodrop spectrophotometer, and first-strand total cDNA is prepared from 0.3-1.0 μg RNA by random-hexamer priming. Following the second 20 hr. incubation in the presence of Aβ, RNA extractions and cDNA synthesis are similarly performed.
(§5) Assay development. Gene-specific mRNA levels are determined using a real-time thermocycler, and by normalizing to expression of one or more control genes. Assays for quantifying mRNA levels are based on gene sequences reported in NCBI Genbank. PCR oligonucleotide primers are selected spanning introns to minimize the opportunity for amplication from any contaminating genomic DNA in the RNA preps. Oligonucleotides are typically tested and used at a concentration of 200 nM in qPCR reactions containing SYBR dye. Control reactions include template from cDNA synthesis reactions either + or − reverse transcriptase (RT), as well as no-template controls (ntc). All reactions are performed in triplicate. Reactions are typically run with 40 cycles of 95° C. (10 sec) and 58° C. (30 sec). Melt curves based on incremental 0.5° C. increases are determined for new assays to test for uniformity of amplified products. Reaction conditions are modified as needed depending on initial test results. ‘Working’ assays are selected based on clear RNA-dependent amplification and absence of product in ‘ntc’ reactions. The following assay primers are used: […]
as §1, with “Data from the curcumin concentration range are plotted in order to determine EC50 values (concentrations producing one-half maximal stimulant activity), which are used for comparisons of potency between different compounds.” left out, “changes. […]” for “changes.”

TLR 9 = TLR 9 transcription ratio, AD patient / control PBMCs (qPCR); assay type: cell-based, human; settings: Aβ stimulation
Protocol: as §1, §2

Average permeability = assay type: in vitro ADME; settings: not told
Average solubility = assay type: physicochemical
[1] = test system: human monocytic cell line U-937; assay: Protection of U-937 cells against oxidative stress (H2O2, Trypan-blue viability); assay type: cell-based
Protocol: Protective effect of curcumin against oxidative stress. We tested the potential of curcumin to protect cells in vitro under conditions of oxidative stress. Natural curcumin has been reported to have antioxidant activity and to scavenge free radicals, but reports of the direct effects of curcumin or analogs upon cell viability under conditions of oxidative stress are limited. Viability of the human monocytic cell line U-937 was evaluated in the presence of H2O2, plus varying concentrations of natural BDC (range 0-10 nM). We observed that these cells are more sensitive to oxidative stress than are the neuroblastoma SHSY5Y cells, and so reduced concentrations of H2O2 were used for this experiment. […] However, concentrations of BDC between 0.1-10 nM (i.e. similar concentration range inducing maximal gene expression increases +Aβ in these cells) increased 2-hour cell survival rates up to 90%. […] Assays such as Trypan-blue staining, or other biochemical measures of cell toxicity/survival (e.g. ATP levels) may be useful for evaluating curcumin analogs for their neuroprotective effects against oxidative stress and as candidate AD or ALS drugs.

TLR 6 = TLR 6 transcription ratio, AD patient / control PBMCs (qPCR); assay type: cell-based, human; settings: Aβ stimulation
Protocol: as §1, §2

TLR 4 = TLR 4 transcription ratio, AD patient / control PBMCs (qPCR); assay type: cell-based, human; settings: Aβ stimulation
Protocol: as §1
(§6) MGAT3 and/or TLR transcription were tested by qPCR in human monocyte cells treated with curcuminoids and compared the results to those treated with vehicle (Table 7). As discussed above, activation or up-regulation of macrophage MGAT3 or TLR's results in many functional outcomes, including the enhancement of […] and removal of Aβ, increased apoptosis, secretion of inflammatory cytokines, and other anti-AD antimicrobial activities. […] Thus, the ratio of MGAT3 or TLR transcription upon Aβ stimulation of human monocytes versus vehicle treatment provides an indicator and sensitive method to test the in vitro efficacy of drug candidates. […] The relative biological activity of the curcumin analogs in AD patient and control cells was ascertained in the in vitro Aβ assay described above (see Example 2).

TLR 3 = TLR 3 transcription ratio, AD patient / control PBMCs (qPCR); assay type: cell-based, human; settings: Aβ stimulation
Protocol: as §1, §6

MGAT3 = MGAT3 gene expression by qPCR in U-937 human monocytic cells treated with curcumins plus Aβ; assay type: cell-based; settings: human monocytic cells (U-937), curcumin plus Aβ
Protocol: as §3, §4
as §5, with “All reactions are performed in triplicate. Reactions are typically run with 40 cycles of 95° C. (10 sec) and 58° C. (30 sec).” left out, “products.” for “products. Reaction conditions are modified as needed depending on initial test results. ‘Working’ assays are selected based on clear RNA-dependent amplification and absence of product in ‘ntc’ reactions. The following assay primers are used:”
qPCR reactions of cultured monocyte cDNAs. […] SYBR-Green reactions were run on a Continuous Fluorescence real-time thermocycler and analyzed. Cycle threshold (Ct) values are recorded for each replicate reaction, and are then averaged and normalized against mean Ct values from one or more control genes. Fold-expression differences relative to untreated cells are determined using the 2^−ΔΔCt method as previously described. […] Data are also evaluated for each gene with regard to sensitivity, maximally effective concentration of curcuminoid, response to Aβ, and overall magnitude of fold-expression changes. […]

For `O=C(/C=C(O)/C=C/c1ccc(O)cc1)/C=C/c1ccc(O)cc1` [Compound 1, 5-Hydroxy-1,7-bis-(4-hydroxy-phenyl)-hepta-1,4,6-trien-3-one, reference compound], the “Relative ratio of TLR 7 transcription in AD patient / control PBMC's” value (TLR 7) was “TLR 7 ++ ((++) indicates a ratio of 1.5-2.0)”, the “Relative ratio of TLR 1 transcription in AD patient / control PBMC's” value (TLR 1) was “TLR 1 ++ ((++) indicates a ratio of 1.5-2.0)” and the “Relative gene expression TLR4, increased expression relative to control cells” value (TLR4) was “+ ((+) <20-fold)”. For the same compound, the “Relative ratio of TLR 9 transcription in AD patient / control PBMC's” value (TLR 9) was “TLR 9 ++ ((++) indicates a ratio of 1.5-2.0)”, the Papp (Average permeability) was 305 ± 9 ×10⁻⁶ cm/s and the “Avg. Solubility” value (Average solubility) was “insol”. The “2-hour cell survival rate” value ([1]; U-937, 100 μM H2O2, BDC 0.1-10 nM, Trypan-blue) was “up to 90%”, the “Cell viability above 0.1-10 nM concentration range” value ([1]; U-937, in combination with H2O2) was “decreased” and the “Relative ratio of TLR 6 transcription in AD patient / control PBMC's” value (TLR 6) was “TLR 6 + ((+) indicates a ratio of 1.0-1.5)”. The “Relative ratio of TLR 4 transcription in AD patient / control PBMC's” value (TLR 4) was “TLR 4 +++ ((+++ to ++++) indicates a ratio of 2.0 and above)”, the “Relative ratio of TLR 3 transcription in AD patient / control PBMC's” value (TLR 3) was “TLR 3 ++ ((++) indicates a ratio of 1.5-2.0)” and the “Relative gene expression MGAT3, increased expression relative to control cells” value (MGAT3) was “+ ((+) <20-fold)”.
